Reference: US6800727B2, “Peptides with increased + charge and hydrophobicity by substituting one or more amino acids of CA-MA peptide and pharmaceutical compositions containing thereof” (Chosun University, priority 2001, dated 2004)
Residues, ends and D or L forms follow the SMILES beside them.

How the values were obtained:
[1] = tested on: Human red blood corpuscles; assay: Cytotoxicity: hemolysis capacity; assay type: cell-based; settings: up to 12.5 μM
Method: Human red blood corpuscles were diluted with PBS (pH 7.0) to the concentration of 8%, and loaded into each wells of 96-well plate. Synthetic peptide of the present invention was half-fold diluted consecutively from 12.5 μM/well, followed by reacting with the red blood corpuscles for 1 hour at 37° C. After centrifugation, OD414 was measured to determine the amount of hemoglobin in the supernatant. At this time, CA-MA peptide was used as a comparative group and melittin was used as a positive control. In order to investigate the level of hemolysis, 1% triton X-100 was added, and then OD was measured. Hemolysis capacity of triton X-100 was regarded as 100%, with which hemolysis capacity of the synthetic peptide was compared and calculated according to the below <Mathematical Formula 1>.
% hemolysis=(OD A−OD B/OD C−OD B)×100

[2] = tested on: SNU 601 (a human stomach cancer cell line); assay: Anticancer activity, MTT assay; assay type: cell-based; settings: for anti-cancer activity: SNU 601
Method: (§1) In order to measure the anticancer activity of the synthetic peptide of the present invention, the present inventors performed MTT assay with Calu-6 (a human lung cancer cell line), SNU 601 (a human stomach cancer cell line) and Jurkat (a T-cell lymphoma cell line) cells. Firstly, 90 μl of each cell line (2×10^5 cells/ml) was loaded into each well of 96-well plate. At this time, only medium contained wells were used as a control. After shaking well, the cells were cultured in CO2 incubator for 3 days. Formazan produced by mitochondria enzymes of living cells was dissolved in 100 μl of 0.04 N HCl-isopropanol, and finally, OD540 was measured by using ELISA reader. The anti-cancer activity of antibiotic peptide of the present invention was represented by a percentage (OD of synthetic peptide treated well/OD of control×100).

[3] = tested on: Jurkat (a T-cell lymphoma cell line); assay: Anticancer activity, MTT assay; assay type: cell-based
Method: as §1

[4] = tested on: Calu-6 (a human lung cancer cell line); assay: Anticancer activity, MTT assay; assay type: cell-based; settings: for anti-cancer activity: Calu-6
Method: as §1

[5] = tested on: Bacillus subtilis; assay: Anti-bacterial activity observation with SEM; assay type: cell-based; settings: 0.78 μM, 30 minutes at 37° C.; FIG. 3
Method: (§2) Bacillus subtilis (Gram-positive) and Pseudomonas aeruginosa (Gram-negative) cells were cultured in LB medium (1% bacto trypton, 0.5% bacto yeast extract, 1% sodium chloride) to mid-log phase, and the cells were diluted with 10 mM of Na-phosphate buffer containing 100 mM of NaCl) at the concentration of 10^8 cells/ml. Synthetic peptide of the present invention and CA-MA peptide (as a comparative group) were added into the diluted cell culture medium (final conc. 0.78 μM in B. subtilis culture, 1.56 μM in P. aeruginosa culture), followed by further culturing for 30 minutes at 37° C. 0.2 M Na-phosphate buffer containing 5% glutaraldehyde was added into the medium, and the cells were fixed for 2 hours at 4° C. The cells were filtered with isopore filters (0.2 μm pore size, Millipore, Bedford, Mass., USA), and washed with 0.1 M Na-cacodylate buffer (pH 7.4). The filters were treated with 1% osmium tertoxide and dehydrated.

[6] = tested on: Pseudomonas aeruginosa; assay: Anti-bacterial activity observation with SEM; assay type: cell-based; settings: 1.56 μM, 30 minutes at 37° C.; FIG. 4
Method: as §2

[7] = tested on: Bacillus subtilis; assay: Membrane dynamic condition, DPH fluorescence anisotropy; assay type: cell-based; settings: 6.25 μM˜0.097 μM, 2 hours at 37° C.; FIG. 5A
Method: (§3) The present inventors performed the below experiment in order to investigate the dynamic condition of lipid membrane of bacteria cells treated with synthetic peptide of the present invention. Particularly, B. subtilis (Gram-positive) and P. aeruginosa (Gram-negative) were cultured to mid-log phase in LB medium (1% bacto trypton, 0.5% bacto yeast extract, 1% sodium chloride). And the antibiotic peptide of the present invention and CA-MA peptide (as a comparative group) were treated (6.25 μM˜0.097 μM, half-fold diluted) thereto. Each strains were further cultured for 2 hours at 37° C. After fixing with 0.25% formaldehyde for 1 hour at room temperature, cultured cells were washed with PBS (pH 7.4), and then frozen in liquid nitrogen. For the fluorescent labeling, PBS (pH 7.4) was added until OD450 reached to 0.25, and DPH (1,6-diphenyl-1,3,5-hexatriene) dissolved in tetrahydrofuran was added (final conc. […]), followed by further culturing for 45 minutes at 37° C. Steady-state fluorescence anisotropy was determined by measuring the strength of fluorescence with spectrofluorometer (HITACHI F-3010, Tokyo, Japan) at 330 nm and 450 nm.

[8] = tested on: Pseudomonas aeruginosa; assay: as above; assay type: cell-based; settings: 6.25 μM˜0.097 μM, 2 hours at 37° C.; FIG. 5B
Method: as §3

[9] = tested on: Bacillus subtilis; assay: Visualization of anti-bacterial activity, colonies on LB plate; assay type: cell-based; settings: 4×10^5 B. subtilis cells, 1 μM peptide, 2 hours at 37° C.; FIG. 1
Method: (§4) In order to visualize the antibiotic activity of the synthetic peptide of the present invention on the plate, Pseudomonas aeruginosa and Bacillus subtilis were inoculated in LB medium (1% bacto trypton, 0.5% yeast extract, 1% sodium chloride), and cultured to mid-log phase. Particularly, 4×10^5 P. aeruginosa cells were loaded into the medium, and 4 μM of synthetic peptide was added thereto. 4×10^5 B. subtilis cells were also loaded into the medium, and 1 μM of synthetic peptide was added thereto. After culturing for 2 hours at 37° C., the culture fluid was smeared on LB plate to visualize the cells. At this time, CA-MA peptide was used as a comparative group.

[10] = tested on: Pseudomonas aeruginosa; assay: Visualization of anti-bacterial activity, colonies on plate; assay type: cell-based; settings: 4×10^5 P. aeruginosa cells, 4 μM peptide, 2 hours at 37° C.; FIG. 2
Method: as §4

[11] = tested on: Candida albicans (TIMM 1768); assay: Anti-fungal activity, MIC by MTT assay; assay type: cell-based; settings: summary of the fungi of Table 2
Method: In order to measure the anti-fungal activity of the synthetic peptide of the present invention, the present inventors performed MTT assay with Candida albicans (TIMM 1768) and Tricosphoron beigelil (KCTC 7707). Particularly, PDB medium (20% potato infusion frum, 2% bacto dextrose) containing various fungi was loaded into the wells (100 μl/well) of 96-well plate. Antibiotic peptides of the present invention and CA-MA peptide (as a comparative group) were half-fold diluted consecutively, and added into the plate for further culturing. 10 μl of MTT solution ([…], 5 mg/ml) was added into each well followed by further culturing for 5-6 hours. Formazan produced by mitochondria enzymes of living cells was dissolved in 100 μl of 0.04 N HCl-isopropanol. Finally, OD570 was measured by using ELISA reader to determine the degree of MIC.

[12] = tested on: Bacillus subtilis (KCTC 1918); assay: MIC measurement, anti-bacterial activity; assay type: cell-based; settings: summary of the strains of Table 1
Method: In order to measure the anti-bacterial activity of the peptide synthesized in Example 1, minimum inhibitory concentration (MIC) of the peptide was measured.
The present inventors used Bacillus subtilis (KCTC 1918) and Staphylococus epidermidis (KCTC 1917) as Gram-positive bacteria, and Pseudomonas aeruginosa (KCTC 1637) and Salmonella typhimurium (KCTC 1926) as Gram-negative bacteria for this experiment. All the bacteria used in this experiment were given by Korea Research Institute of Bioscience and Biotechnology (KRIBB). Each bacterial strain was cultured in LB medium(1% bacto-trypton, 0.5% bacto-yeast extract, 1% sodium chloride) to the mid-log phase, and diluted with 1% bacto-peptone medium at the concentration of 1×10^4 cells/100 μl. The diluted bacteria were loaded into micro-titrate plate. Antibiotic peptide synthesized in Example 1 and CA-MA peptide (as a comparative group) were half-fold diluted consecutively from 25 μM/well, and added into the plate for culture at 37° C. for 6 hours. Finally, the MIC of each strain was determined by observing OD620 with a micro-titrate plate reader.

[13] = tested on: SPF SD line rats; assay: Acute toxicity test in rat via non-oral administration; assay type: in vivo; settings: single intravenous injection, 1 g/kg/15 ml in 0.5% methyl cellulose
Method: (§5) The following experiments were performed to see if the synthetic peptide of the present invention has acute toxicity in rat.
(§6) 6-week old SPF SD line rats were used in the tests for acute toxicity. Synthetic peptide of the present invention represented by the SEQ. ID. NO: 2 was suspended in 0.5% methyl cellulose solution and intravenous injected once to 2 rats per group at the dosage of 1 g/kg/15 ml. Death, clinical symptoms, and weight change in rats were observed, hematological tests and biochemical tests of blood were performed, and any abnormal signs in the gastrointestinal organs of chest and abdomen were checked with eyes during autopsy.

[14] = as above; assay type: in vivo; settings: SD, in vivo, 1 g/kg/15 ml, intravenous, read-out: level up to which no toxic change is caused
Method: as §5, §6

Compound: CC[C@H](C)[C@H](NC(=O)CNC(=O)[C@@H](NC(=O)[C@H](CCCCN)NC(=O)[C@H](CCCCN)NC(=O)[C@H](Cc1ccccc1)NC(=O)[C@H](CC(C)C)NC(=O)[C@H](CCCCN)NC(=O)[C@H](Cc1c[nH]c2ccccc12)NC(=O)[C@@H](N)CCCCN)[C@@H](C)CC)C(=O)NCC(=O)N[C@@H](CCCCN)C(=O)N[C@@H](Cc1ccccc1)C(=O)N[C@@H](CC(C)C)C(=O)N[C@@H](Cc1c[nH]cn1)C(=O)N[C@@H](CO)C(=O)N[C@@H](C)C(=O)N[C@@H](CCCCN)C(=O)N[C@@H](CCCCN)C(=O)N[C@@H](Cc1ccccc1)C(=O)O [CA-MA] (H-KWKLFKKIGIGKFLHSAKKF-OH)
- cytotoxicity (hemolysis), in words [1]: did not show any cytotoxicity

Compound: CC[C@H](C)[C@H](NC(=O)CN)C(=O)NCC(=O)N[C@@H](C)C(=O)N[C@H](C(=O)N[C@@H](CC(C)C)C(=O)N[C@@H](CCCCN)C(=O)N[C@H](C(=O)N[C@@H](CC(C)C)C(=O)N[C@H](C(=O)N[C@H](C(=O)NCC(=O)N[C@@H](CC(C)C)C(=O)N1CCC[C@H]1C(=O)N[C@@H](C)C(=O)N[C@@H](CC(C)C)C(=O)N[C@H](C(=O)N[C@@H](CO)C(=O)N[C@@H](Cc1c[nH]c2ccccc12)C(=O)N[C@H](C(=O)N[C@@H](CCCCN)C(=O)N[C@@H](CCCNC(=N)N)C(=O)N[C@@H](CCCCN)C(=O)N[C@@H](CCCNC(=N)N)C(=O)N[C@@H](CCC(N)=O)C(=O)N[C@@H](CCC(N)=O)C(N)=O)[C@@H](C)CC)[C@@H](C)CC)[C@@H](C)O)[C@@H](C)O)C(C)C)C(C)C [Melittin, melittin]
- cytotoxicity (hemolysis), in words [1]: high cytotoxicity

Compound: CC(C)C[C@H](NC(=O)[C@H](CCCCN)NC(=O)[C@H](CCCCN)NC(=O)[C@H](CC(C)C)NC(=O)[C@H](CC(C)C)NC(=O)[C@H](CCCCN)NC(=O)[C@H](CCCCN)NC(=O)[C@H](CC(C)C)NC(=O)[C@H](CC(C)C)NC(=O)[C@@H]1CCCN1C(=O)[C@@H]1CCCN1C(=O)[C@@H]1CCCN1C(=O)[C@H](CCCCN)NC(=O)[C@H](CCCCN)NC(=O)[C@H](CC(C)C)NC(=O)[C@H](CC(C)C)NC(=O)[C@H](CCCCN)NC(=O)[C@H](CCCCN)NC(=O)[C@H](Cc1c[nH]c2ccccc12)NC(=O)[C@@H](N)CCCCN)C(=O)O [Synthetic peptide (SEQ ID. NO: 2)] (H-KWKKLLKKPPPLLKKLLKKL-OH; N-terminus and C-terminus assumed)
- anti-cancer activity compared with CA-MA peptide ([2]; SNU 601, 3 days, FIG. 6C): higher than that of CA-MA peptide
- anti-cancer activity ([2]; over 10 μM concentration): complete restrain of cancer cell growth
- anti-cancer activity ([2]; to the concentration of 1 μM): did not showed anti-cancer activity
- anti-cancer activity compared with CA-MA peptide ([3]; 3 days, FIG. 6B): higher than that of CA-MA peptide
- anti-cancer activity ([3]; over 10 μM concentration): complete restrain of cancer cell growth
- anti-cancer activity ([3]; to the concentration of 1 μM): did not showed anti-cancer activity
- anti-cancer activity compared with CA-MA peptide ([4]; Calu-6, 3 days, FIG. 6A): higher than that of CA-MA peptide
- anti-cancer activity ([4]; over 10 μM concentration): complete restrain of cancer cell growth
- anti-cancer activity ([4]; to the concentration of 1 μM): did not showed anti-cancer activity
- destroyed cells observed with SEM, versus control and CA-MA peptide [5]: much more destroyed cells
- destroyed cells observed with SEM, versus control and CA-MA peptide [6]: much more destroyed cells
- DPH-labeled fluorescent materials intercalated at lower position of membrane, compared to CA-MA peptide [7]: 15-20%
- DPH-labeled fluorescent materials intercalated at lower position of membrane, compared to CA-MA peptide [8]: 15-20%
- cytotoxicity (hemolysis), in words [1]: did not show any cytotoxicity
- colonies on LB plate [9]: no colony was found
- anti-bacterial activity on agar plate, compared to CA-MA [10]: remarkable anti-bacterial activity
- anti-fungal activity relative to CA-MA peptide [11]: about 2 times
- antibiotic activity relative to CA-MA peptide [12]: around 4 times
- clinical symptoms, weight change, death [13]: did not cause any specific clinical symptoms, weight change, or death
- hematological tests, biochemical tests of blood, autopsy [13]: No change was observed
- NOAEL [14]: ≥ 10 mg/kg
